Experimental data published in US20240158386A1, “BENZOXAZOLONE INHIBITORS OF INFLAMMASOMES” (ICAHN SCHOOL OF MEDICINE AT MOUNT SINAI, priority 2021, published 2024).

Columns and labels:
[1] = system: inflammasome priming (NLRP3, caspase-1, IL-1β, TNF-α, IL6, NLRC4 expression); assay: In-vivo assessment of C77: RNA expression of inflammatory genes in mouse brain; set-up: species or system WT C57BL/6J mice; conditions: 50 mg/kg 2 hours before LPS administration
Method: (§1) Gene expression analysis. RNA was isolated from frontal cortex from C57BL/6J mice or from THP1 human cultures using the RNeasy Mini Kit (QIAGEN, Hilden, Germany), following the recommendations of the manufacturer. RNA concentration was determined, and cDNA was synthesized using the High-Capacity cDNA Reverse Transcription Kit with RNase Inhibitor (applied biosystems™). The expression levels of inflammatory genes—NLRP3, caspase-1, IL-1β, TNF-α, NLRC4, IL-18, and IL6—were determined in 4 replicates through PowerUp SYBER Green Master Mix (Thermofisher) using an ABI PRISM […] Sequence Detection System. Hypoxanthine phosphoribosyltransferase (HPRT) was used as an internal control in samples from mouse brains, and GAPDH in the case of THP1 lysates. Gene expression levels were normalized to control samples (mice or THP1 cells treated with PBS).
Animals used in in-vivo assessments. WT C57BL/6J mice (stock #000664) were obtained from The Jackson Laboratory. Mice were housed in groups of five animals per cage on a 12:12 hours light/dark cycle. Water and food were provided ad libitum. 8-10 weeks males were used for experiments. All procedures were approved by the Institutional Animal Care and use Committee of the Icahn School of Medicine at Mount Sinai.
In-vivo assessment of C77. The ability of C77 to inhibit NLRP3 in-vivo was evaluated using WT C57BL/6J mice. […]

[2] = system: NLRP3, caspase-1, IL-1β, IL-6, IL-8, and TNF-α gene expression; assay: Gene expression analysis in cell cultures (FIG. 3C); assay type: cell-based, human
Method: as §1

microglia cultures = assay: Cell viability assay (CytoTox 96 cytotoxicity); assay type: cell-based, murine
Method: NLRP3 inflammasome activation assay. Primary microglia cultures were incubated with the compounds that inhibited IL-1β production in THP1 macrophages. Cells pretreated with 100 μM of the compounds—or with the same DMSO volume, in the case of control samples—were primed with 400 ng/ml LPS for 3 hours, and activated with 4.5 mM ATP for 45 minutes or […] nigericin for 1 hour. Dose-response curves were conducted by incubating microglia cultures with different concentrations of the selected compounds, ranging from 0.001 to 100 μM, 1 hour before NLRP3 activation with LPS and ATP. Supernatants were collected for IL-1β and toxicity assessments.
Cell viability assays. The cytotoxic effect of the compounds identified by in-vitro screening was assayed with the Cyto Tox 96® NonRadioactive Cytotoxicity Assay (Promega), following the recommendations of the manufacturer.

TNF-α production = TNF-α production in cell culture supernatant (ELISA); assay type: cell-based, mouse; conditions: FIG. 3B
Method: Cytokine quantification. IL-1β in cell supernatants and brain tissue samples—after the different treatment groups—was quantified using the Mouse IL-1 beta/IL-1F2 DuoSet ELISA kit (R&D systems), IL-6 in cell culture supernatant was measured through the Mouse IL-6 ELISA kit (ThermoFisher), TNF-α in cell culture supernatants was determined using the Mouse TNF-alpha DuoSet ELISA (R*D systems), and IL-18 in brain tissue was measured through the IL-18 Mouse ELISA Kit (Invitrogen) following the manufacturers' recommended protocol. IL-1β precursor and cleaved IL-1β in the FC of mice treated with vehicles, LPS, or C77-LPS was assessed by western blot. All samples were run in technical duplicates.

Structure (SMILES): O=C(Cn1c(=O)oc2ccccc21)NCc1cncc(-c2ccsc2)c1 [Compound C77]
- overexpression of inflammatory genes (NLRP3, IL1β, TNF-α, IL6) in mouse brain [1]: did not reduce the overexpression of these genes
- expression of caspase-1 [2]: slightly reduced the expression of caspase-1
- mRNA levels of IL-6, IL-8, or TNF-α [2]: did not modify the mRNA levels
- transcriptional priming of NLRP3 or IL-1β [2]: did not affect the transcriptional priming
- toxicity on microglia cultures (microglia cultures; 50 μM): significantly reduced the viability of the culture
- toxicity on microglia cultures (microglia cultures; concentrations lower than 50 μM): did not show significant toxicity levels
- inhibition of TNF-α production (TNF-α production): did not inhibit
